From publication PMC10743895, “Synthesis of 1,3,4-Thiadiazole Derivatives and Their Anticancer Evaluation” (International Journal of Molecular Sciences, 2023)
Where two headings read alike, the source gives them in different places.

Legend:
HUVEC cells = assay: Apoptosis assay (Annexin V-FITC/PI flow cytometry), HUVEC; format: cell-based, human
Protocol: (§1) Two reference concentrations, 5 μM and 50 μM, and two distinct treatment durations, 24 and 48 h, were employed to assess the influence of the test compounds on apoptosis in both normal and tumor cells. […] HUVEC cells were exposed to both drugs.
(§2) The apoptosis assay was performed according to the manufacturer’s instructions using the Annexin V-FITC kit (BD Biosciences, San Jose, CA, USA). Cells untreated and treated with the experimental compound were suspended in a cold binding buffer. The percentages of apoptotic cells were determined by double staining with Annexin V-FITC/PI. In each tube was added 400 μL of Annexin V binding buffer and the 5000 cells/sample for 15 min in the dark at room temperature. The cells were analyzed using a FACSCantoII flow-cytometer (Becton Dickinson—BD, La Jolla, CA, USA). The analysis was performed using DIVA 6.2 software to discriminate viable cells (FITC-PI-) from necrotic cells (FITC + PI+), and early apoptosis (FITC + PI) from late apoptosis.

MCF-7 cells [1] = assay: Apoptosis assay (Annexin V-FITC/PI flow cytometry), MCF-7; format: cell-based, human
Protocol: as §1, §2

Daphnia magna = Daphnia magna toxicity assay; format: in vivo; settings: up to 200 µM
Protocol: The Daphnia magna bioassay results are presented in Table 3 as the maximum average percentage of lethality (L%) registered for each compound and the median lethal concentration (LC50) if the values permitted its calculation.
Daphnia magna Straus is parthenogenetically maintained at ‘Carol Davila’ University’s Department of Pharmaceutical Botany and Cell Biology. The culture was consistently maintained at a temperature of 25 °C, with a 16-h light and 8-h dark photoperiod. To ensure consistency, young daphnids were carefully chosen based on their size and kept in an artificial medium for 24 h prior to the assessment. The bioassay involved 10 daphnids per replicate, using tissue culture plates with 12 wells from Greiner Bio-One. The experimental procedure followed the protocol described in previous studies.
Each determination was carried out in duplicate.

LoVo cells [2] = assay: MTS cell viability assay, LoVo cells; format: cell-based, human
Protocol: (§3) To determine the optimal working concentration, dose-effect curves were made for each compound in the range of concentrations between 6.25 and 400 μM.
(§4) LoVo (human colorectal adenocarcinoma) human cancer cell line and HUVEC normal cells were purchased from American Type Culture Collection (ATCC). The MCF-7 human breast adenocarcinoma cell line was provided from European Collection of Authenticated Cell Cultures (ECACC). HUVEC normal cells, isolated from the vascular endothelium of an umbilical cord, were used as a reference. Adherent cells were maintained in culture in Dulbecco’s modified Eagle medium/nutrient mixture F-12 (DMEM:F12) with 2 mM of L-glutamine, 10% fetal bovine serum, 100 units/mL of penicillin and 100 μg/mL of streptomycin, and incubated at 37 °C in a 5% CO2-humidified atmosphere. After 24 h, adherent cells were treated with different concentrations of the compounds for different periods of time. Cis-Pt and DOX, conventional oncology drugs used in cancer treatments, can be used as a positive control of the experiments. […] Then, cells were detached with a nonenzymatic solution of phosphate-buffered saline (PBS)/1 mM EDTA and washed twice in PBS.
(§5) The study utilized a colorimetric assay based on MTS (chemically known as 3-(4,5-dimethylthiazol-2-yl)-5-(3-carboxymethoxyphenyl)-2-(4-sulfophenyl)-2H-tetrazolium) and called CellTiter 96 Aqueous One Solution Cell proliferation Assay (Promega, Madison, WI, USA) in order to measure cell viability. The assay was performed in triplicate in 96-well microtiter plates with a flat bottom (Falcon). A number of 1 × 10^4 cells/well were cultured in 100 μL for 24 h, culture supernatants were discarded, and then cells were treated for 24 and 48 h with increasing concentrations of the tested compound. After the end of the incubation time, 20 μL of the reagent containing MTS and PES (phenazine ethosulfate) was added in each well. Plates were incubated for 4 h at 37 °C, with mild agitation every 15 min. The reduction in the tetrazolium compound to formazan was spectrophotometrically measured at λ = 492 nm using a Dynex plate reader (DYNEX Technologies MRS, Chantilly, VA, USA). The percentage of viability compared to untreated cells (considered 100% viable) was calculated with the formula:(1) Cell viability (%)=Absorbance treated cells−Absorbance culture medium/Absorbance untreated cells−Absorbance culture medium×100
(§6) The cell viability compared was calculated and data were expressed as a mean ± standard deviation (SD) of the experiments and obtained in triplicate (n = 3).

MCF-7 cells [3] = assay: MTS cell viability assay, MCF-7 cells; format: cell-based, human; settings: for IC50: Homo sapiens
Protocol: as §3, §4, §5, §6

HUVEC normal cells = assay: MTS cell viability assay, HUVEC normal cells; format: cell-based, human
Protocol: as §3, §4, §5, §6

LoVo cells [4] = assay: Apoptosis assay (Annexin V-FITC/PI flow cytometry), LoVo; format: cell-based, human
Protocol: as §1, §2

[5] = Homo sapiens, LoVo, read-out: IC50 (48 h) LoVo, 48 h exposure
[6] = Homo sapiens, LoVo, 24 h exposure, read-out: IC50 (24 h) LoVo
[7] = MCF7, read-out: IC50 (48 h) MCF-7, 48 h exposure
[8] = MCF7, 24 h exposure, read-out: IC50 (24 h) MCF-7
[9] = Homo sapiens, HUVEC, read-out: IC50 (48 h) HUVEC, 48 h exposure
[10] = Homo sapiens, HUVEC, 24 h exposure, read-out: IC50 (24 h) HUVEC

| SMILES | Total Apoptosis (%) 24 h HUVEC (HUVEC cells; 5 μM) | Total Apoptosis (%) 48 h HUVEC (HUVEC cells; 5 μM) | Total Apoptosis (%) 24 h HUVEC (HUVEC cells; 50 μM) | Total Apoptosis (%) 48 h HUVEC (HUVEC cells; 50 μM) | Total Apoptosis (%) 24 h MCF-7 (MCF-7 cells [1]; 5 μM) | Total Apoptosis (%) 48 h MCF-7 (MCF-7 cells [1]; 5 μM) | Total Apoptosis (%) 24 h MCF-7 (MCF-7 cells [1]; 50 μM) | Total Apoptosis (%) 48 h MCF-7 (MCF-7 cells [1]; 50 μM) | Maximum Average L% (lethality) (Daphnia magna; 24 h) | Maximum Average L% (lethality) (Daphnia magna; 48 h) | IC50 (LoVo cells [2]; [5]) | IC50 (LoVo cells [2]; [6]) | IC50 (MCF-7 cells [3]; [7]) | IC50 (MCF-7 cells [3]; [8]) | IC50 (HUVEC normal cells; [9]) | IC50 (HUVEC normal cells; [10]) | Total Apoptosis (%) 24 h LoVo (LoVo cells [4]; 5 μM) | Total Apoptosis (%) 48 h LoVo (LoVo cells [4]; 5 μM) | Total Apoptosis (%) 24 h LoVo (LoVo cells [4]; 50 μM) | Total Apoptosis (%) 48 h LoVo (LoVo cells [4]; 50 μM) | other results |
| --- | --- | --- | --- | --- | --- | --- | --- | --- | --- | --- | --- | --- | --- | --- | --- | --- | --- | --- | --- | --- | --- |
| Nc1nnc(-c2ccccc2)s1 [2a, 5-Phenyl-1,3,4-thiadiazol-2-amine] | 12.8% | 14.7% | 15.0% | 18.4% | 11.8% | 24.4% | 9.8% | 24.7% | 0% | 40% | 62.2 µM | 204 µM | > 400 µM | > 400 µM | 83.8 µM | > 400 µM | 9.0% | 17.6% | 8.9% | 13.7% |  |
| Nc1nnc(-c2ccc(O)c(O)c2)s1 [2c, 5-(3,4-Dihydroxyphenyl)-1,3,4-thiadiazol-2-amine] | 16.6% | 15.6% | 12.1% | 12.1% | 11.7% | 26.6% | 7.6% | 15.1% | 0% | 25% | 117 µM | 163 µM | 398 µM | > 400 µM | 155 µM | > 400 µM | 7.5% | 13.0% | 6.8% | 13.8% | viability of MCF-7 cells (MCF-7 cells [3]; 48-h period): less than 50% |
| COc1cc(-c2nnc(N)s2)cc(OC)c1OC [2e, 5-(3,4,5-Trimethoxyphenyl)-1,3,4-thiadiazol-2-amine] | 26.3% | 13.1% | 24.3% | 15.5% | 9.1% | 24.6% | 14.9% | 34.2% | 0% | 5% | 79.2 µM | 108 µM | > 400 µM | > 400 µM | 300 µM | > 400 µM | 4.9% | 14.3% | 16.4% | 19.9% |  |
| N.N.[Cl][Pt][Cl] [Cis-Pt, Cisplatin, reference compound] | 15.7% | 14.8% | 21.7% | 17.4% |  |  |  |  |  |  |  |  |  |  |  |  | 15.7% | 31.6% | 24.5% | 38.7% | IC50 (LoVo cells [2]; 24 h exposure, read-out: IC50 (24 h) LoVo): 12.8 µM; IC50 (LoVo cells [2]; read-out: IC50 (48 h) LoVo, 48 h exposure): 80.1 µM; IC50 (HUVEC normal cells; 24 h exposure, read-out: IC50 (24 h) HUVEC): 11.1 µM; IC50 (HUVEC normal cells; read-out: IC50 (48 h) HUVEC, 48 h exposure): 8.23 µM |
| COc1cccc2c1C(=O)c1c(O)c3c(c(O)c1C2=O)C[C@@](O)(C(=O)CO)C[C@@H]3O[C@H]1C[C@H](N)[C@H](O)[C@H](C)O1 [DOX, Doxorubicin, reference compound] | 15.2% | 9.5% | 18.6% |  |  | 33.6% | 19.0% | 49.0% |  |  |  |  | 87.4 µM | 129 µM | 1.35 µM | 1.03 µM |  |  |  |  |  |
